Source: US10030016B2 (Sunesis Pharmaceuticals, Inc., priority 2009, dated 2018)
Structures can show the parent of a compound that is named as a salt. Where two headings read alike, the source gives them in different places.

How the values were obtained:
[1] = system: phospho-akt (Thr308) in PC-3 cells; experiment: Inhibition of phospho-akt (Thr308) in PC-3 cells, MSD phospho-akt 308 ELISA kit; format: cell-based; conditions: Homo sapiens, 2 hours, no serum, read-out: EC50
Protocol: PC-3 cells were harvested by trypsin and counted. Cells were plated in coated 96-well flat bottom plates (plate 15,000 cells/well in 100 ul growth media (10% FBS, 1× pen-strep) an place in an incubator overnight.
Subject inhibitors were stocked at 50 mM, then diluted to 30 mM (4.8 μl cpd plus […] DMSO) in 100% DMSO. Three-fold dilutions were performed from 30 mM stock. (4 μl into 8 ul 100% DMSO). Aliquots of 1.0 μl of inhibitor solution were transferred into SF Medium (using deep well block).
Control wells were prepared as follows. For DMSO high controls, 1.0 μl of 100% DMSO was added into 1.0 ml SF. For low controls for PC-3 cells, 5 μM of Wortmannin (10 μl of 1 mM Wortmannin stock was added into 2 ml SF Medium. The supernatant media was removed and the plate was blotted. 100 μl of controls/media or compound/media were added to cells and placed in incubator for 2 hours. The supernatant media was removed and the plate was blotted. 55 μl of the MSD complete lysis buffer was added (10 mls Tris Lysis buffer, 200 ul protease inhibitor, 100 ul phosphatase inhibitor 1, and 100 ul phosphatase inhibitor II). The plate was placed on a plate shaker for 60 mins at 4 deg.
MSD plates were blocked for 1 hour by adding 150 μl of Blocking Solution (3% BSA) to each well. The MSD plates were washed 4× with TBST, and 50 μl lysates were transferred to MSD plate and place on plate shaker shake at 4 degrees O/N, light shaking (speed 3.5). The plate was washed 4× with TBST.
25 μl of Ab detection solution was added to each well. The plate was sealed and incubated 1 hr RT, light shaking (speed 3.5). The plate was washed 4 times with TBST. 150 μl of Read Buffer was added (5 mls 4×MSD Read Buffer+15 mls water). Finally the plate was read immediately on the MSD plate reader.

PDK1 = PDK1 (Homo sapiens (Human), UniProt O15530); experiment: PDK1 kinase assay (coupled PDK1/AKT/FAM-crosstide assay, IMAP fluorescence polarization); format: biochemical
Chain of PDK1 (O15530 51-359): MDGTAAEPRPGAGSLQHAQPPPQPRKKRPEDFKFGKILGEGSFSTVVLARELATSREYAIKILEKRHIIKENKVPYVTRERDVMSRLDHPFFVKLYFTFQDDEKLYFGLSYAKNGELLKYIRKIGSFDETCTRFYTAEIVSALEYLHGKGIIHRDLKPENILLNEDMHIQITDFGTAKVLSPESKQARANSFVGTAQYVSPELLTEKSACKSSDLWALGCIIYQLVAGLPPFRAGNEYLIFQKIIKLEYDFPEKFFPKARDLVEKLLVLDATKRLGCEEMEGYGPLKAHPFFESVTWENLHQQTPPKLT
Protocol: A PDK1 kinase assay was performed as follows. PDK1 (amino acids 51-359) and AKT2 (amino acids 140-467 fused to PIFtide, amino acids […]) were expressed as N-terminally tagged GST fusion proteins in insect cells and purified to homogeneity. Enzyme activity was determined in a coupled PDK1/AKT/FAM-crosstide assay and phosphorylation of FAM-crosstide was determined by standard IMAP protocol (Molecular Devices). For inhibition studies, compounds were titrated 4-fold in DMSO and diluted 40-fold into assay buffer (10 mM Tris HCl pH7.2; 10 mM MgCl2; 0.01% Triton X-100; 1 mM DTT) containing PDK1, AKT2, and FAM-crosstide (final concentrations: 0.75 nM PDK1, 10 nM unphosphorylated AKT2, and 100 nM crosstide substrate). The kinase reaction was initiated by adding ATP to a final concentration of 40 μM of PDK1 and incubated at 25° C. for 30 min. To detect assay product, the kinase reaction was combined with Progressive Binding Solution (1:600 Progressive Binding Reagent, 50% Buffer A, 50% Buffer B, Molecular Devices) in a 1:3 ratio. The mixture was incubated for 2 hours at 25° C. and the plate was scanned on an Analyst AD with excitation at 485 nm and emission at 530 nm. The fluorescence polarization value “P” is defined by the equation below. The value “mP” is generated by multiplying the P value for each reaction well by a factor of 1000. The value “ΔmP” for each well is the mP value for that well minus the mP value for the average negative control. P=(Fpar−Fperp)/(Fpar+Fperp) Eq.:
Where “par” is fluorescence intensity parallel to the excitation plane; and “perp” is fluorescence intensity perpendicular to the excitation plane. ΔmP values were plotted as a function of compound concentration and the data were analyzed with a 4-parameter fit using GraphPad Prism software.

[2] = inhibition of P308 Akt in PC-3 cells using MSD
[3] = PC-3, 2 h, inhibition of P308 Akt in PC-3 cells, MSD
[4] = inhibition of phospo-PDK1 in vitro
[5] = inhibition of P308 Akt in PC-3 cells, MSD

| Structure (SMILES) | EC50 [1, 2] | IC50 (PDK1; inhibition of PDK1 in vitro) | EC50 [1, 3] | IC50 (PDK1; [4]) | EC50 [1, 5] |
| --- | --- | --- | --- | --- | --- |
| CC(C)Oc1cc(CNc2ncccc2C(=O)NCc2ccc(F)c(F)c2)cc(-c2c[nH]c3ncc(-c4ccn[nH]4)cc23)c1 [Example 53, 2-(3-(5-(1H-pyrazol-5-yl)-1H-pyrrolo[2,3-b]pyridin-3-yl)-5-isopropoxybenzylamino)-N-(3,4-difluorobenzyl)nicotinamide] | 1000 to 10000 nM | < 100 nM | – | – | – |
| Cc1ccc(CNC(=O)c2cccnc2NCc2ccc(-c3ccc4ncnc(N)c4c3)s2)o1 [Example 3.17, 2-({[5-(4-aminoquinazolin-6-yl)thiophen-2-yl]methyl}amino)-N-[(5-methylfuran-2-yl)methyl] pyridine-3-carboxamide (TFA salt)] | – | – | > 10000 nM | 100 to 1000 nM | – |
| CN(C)CC(=O)Nc1cnc(NCc2ccc(-c3ccc4ncnc(N)c4c3)s2)c(C(=O)NCc2ccc(F)c(F)c2)c1 [Example 8.5.8, 2-({[5-(4-aminoquinazolin-6-yl)thiophen-2-yl]methyl}amino)-N-(3,4-difluorobenzyl)-5-[(N,N-dimethylglycyl)amino] pyridine-3-carboxamide] | – | – | – | 100 to 1000 nM | 1000 to 10000 nM |
| N#Cc1cnc(NCc2ccc(-c3cnc(N)cn3)cc2)c(C(=O)Nc2ccc(F)cc2)n1 [Example 34, 3-(4-(5-aminopyrazin-2-yl)benzylamino)-6-cyano-N-(4-fluorophenyl) pyrazine-2-carboxamide] | – | – | – | < 100 nM | < 1000 nM |
| Nc1ncnc2ccc(-c3ccc(CNc4ncc(NS(=O)(=O)C(F)(F)F)cc4C(=O)NCc4ccc(F)c(F)c4)s3)cc12 [Example 8.6.3] | – | – | – | 100 to 1000 nM | 1000 to 10000 nM |
| CN(C)CCCn1cc(-c2ccc(CNc3ncc(C(F)(F)F)cc3C(=O)NCc3ccc(F)c(F)c3)cc2)c2c(N)ncnc21 [Example 55, 2-(4-(4-amino-7-(3-(dimethylamino)propyl)-7H-pyrrolo[2,3-d]pyrimidin-5-yl)benzylamino)-N-(3,4-difluorobenzyl)-5-(trifluoromethyl)nicotinamide] | < 1000 nM | < 100 nM | – | – | – |
| CCN(CC)CCNC(=O)c1c(C)[nH]c(/C=C2\C(=O)Nc3cc(/C=C/CNc4ncccc4C(=O)NCc4ccc(F)c(F)c4)ccc32)c1C [Example 15.17, 2-((E)-3-((Z)-3-((4-(2-(diethylamino)ethylcarbamoyl)-3,5-dimethyl-1H-pyrrol-2-yl)methylene)-2-oxoindolin-6-yl)allylamino)-N-(3,4-difluorobenzyl)nicotinamide] | – | – | – | < 100 nM | 1000 to 10000 nM |
| C[C@H](NC(=O)c1cc(C#N)cnc1NCc1ccc(-c2cnc(N)c(N)c2)cc1)c1ccc(F)cc1 [Example 102, (S)-5-cyano-2-(4-(5,6-diaminopyridin-3-yl)benzylamino)-N-(1-(4-fluorophenyl)ethyl) nicotinamide] | 1000 to 10000 nM | < 100 nM | – | – | – |
| Cc1n[nH]cc1/C=C1\C(=O)Nc2cc(/C=C/CNc3ncccc3C(=O)NCc3ccc(F)c(F)c3)ccc21 [Example 15.10, N-(3,4-Difluoro-benzyl)-2-((E)-3-{3-[1-(3-methyl-1H-pyrazol-4-yl)-meth-(Z)-ylidene]-2-oxo-2,3-dihydro-1H-indol-6-yl}-allylamino)-nicotinamide] | – | – | – | < 100 nM | < 1000 nM |
| O=C(NCc1ccc(F)c(F)c1)c1cccnc1NCc1csc(-c2ccc3ncnc(NC4CC4)c3c2)n1 [Ex. 6.9, 2-[({2-[4-(cyclopropyl-amino)quinazolin-6-yl)-1,3-thiazol-4-yl}methyl)amino]-N-(3,4-difluorobenzyl) pyridine-3-carboxamide] | – | – | – | < 100 nM | > 10000 nM |
| C[C@H](NC(=O)c1cc(S(C)(=O)=O)cnc1NCc1ccc(-c2ccc3ncnc(N)c3c2)s1)c1ccc(F)c(F)c1 | – | – | – | 100 to 1000 nM | < 1000 nM |
| C[C@H](NC(=O)c1cc(C#N)cnc1NCc1ccc(-c2c[nH]c3ncnc(N)c23)cc1)c1ccc(F)cc1 [Example 41, 2-[4-(4-Amino-7H-pyrrolo[2,3-d]pyrimidin-5-yl)-benzylamino]-5-cyano-N-[(S)-1-(4-fluoro-phenyl)-ethyl]-nicotinamide] | < 1000 nM | < 100 nM | – | – | – |
| CN(C)/C=N/c1cnc(NCc2ccc(-c3ccc4ncnc(N)c4c3)s2)c(C(=O)NCc2ccc(F)c(F)c2)c1 [Example 8.6.5, 2-({[5-(4-aminoquinazolin-6-yl)thiophen-2-yl]methyl}amino)-N-(3,4-difluorobenzyl)-5-{[(E)-(dimethylamino)methylidene]amino}pyridine-3-carboxamide] | – | – | 1000 to 10000 nM | 100 to 1000 nM | – |
| Nc1ncnc2ccc(-c3ccc(CNc4ncccc4C(=O)Nc4ccccc4Cl)s3)cc12 [Example 3.31, 2-({[5-(4-aminoquinazolin-6-yl)thiophen-2-yl]methyl}amino)-N-(2-chlorophenyl)pyridine-3-carboxamide (TFA salt)] | – | – | – | > 5000 nM | > 10000 nM |

Second part, the compound after the results:

| EC50 [1, 2] | IC50 (PDK1; inhibition of PDK1 in vitro) | EC50 [1, 3] | IC50 (PDK1; [4]) | EC50 [1, 5] | Structure (SMILES) |
| --- | --- | --- | --- | --- | --- |
| < 1000 nM | < 100 nM | – | – | – | Nc1ncnc2[nH]cc(-c3ccc(CNc4ncc(C(F)(F)F)cc4C(=O)NCc4ccc(F)c(F)c4)cc3)c12 [Example 330, 2-[4-(4-Amino-7H-pyrrolo [2,3-d]pyrimidin-5-yl)-benzylamino]-N-(3,4-difluoro-benzyl)-5-trifluoromethyl-nicotinamide] |
| 1000 to 10000 nM | < 100 nM | – | – | – | Cn1cc(-c2ccc(CNc3ncc(C(F)(F)F)cc3C(=O)Nc3ccc(F)cn3)cc2)c2c(N)ncnc21 [Example 338, 2-(4-(4-amino-7-methyl-7H-pyrrolo[2,3-d]pyrimidin-5-yl)-benzylamino)-N-(5-fluoropyridin-2-yl)-5-(trifluoromethyl)nicotinamide] |
| < 1000 nM | < 100 nM | – | – | – | C[C@H](NC(=O)c1nc(C#N)cnc1NCc1ccc(-c2cnc(N)c(-c3cccc(N)c3)n2)cc1)c1ccc(F)c(F)c1 [Example 238, 3-{4-[5-Amino-6-(3-amino-phenyl)-pyrazin-2-yl]-benzylamino}-6-cyano-pyrazine-2-carboxylic acid [(S)-1-(3,4-difluoro-phenyl)-ethyl]-amide] |
| < 1000 nM | < 100 nM | – | – | – | C[C@H](NC(=O)c1cc(C#N)cnc1NCc1ccc(-c2cnc(N)c(NCC(O)CO)n2)cc1)c1ccc(F)cc1 (stereo partly drawn) [Example 243, 2-{4-[5-Amino-6-(2,3-dihydroxy-propylamino)-pyrazin-2-yl]-benzylamino}-5-cyano-N-[(S)-1-(4-fluoro-phenyl)-ethyl]-nicotinamide] |
| < 1000 nM | < 100 nM | – | – | – | Cn1cc(-c2ccc(CNc3ncc(C(F)(F)F)cc3C(=O)NCc3ccc(F)c(F)c3)cc2)c2c(N)ncnc21 [Example 331, 2-(4-(4-amino-7-methyl-7H-pyrrolo[2,3-d]pyrimidin-5-yl)-benzylamino)-N-(3,4-difluorobenzyl)-5-(trifluoromethyl)nicotinamide] |
| 1000 to 10000 nM | 1000 to 5000 nM | – | – | – | Cn1cnc(CNC(=O)c2cc(C(F)(F)F)cnc2NCc2ccc(-c3cnc4[nH]nc(N)c4c3)cc2)c1 [Example 270, 2-(4-(3-amino-1H-pyrazolo [3,4-b]pyridin-5-yl)benzylamino)-N-((1-methyl-1H-imidazol-4-yl)methyl)-5-(trifluoromethyl) nicotinamide] |
| < 1000 nM | < 100 nM | – | – | – | C[C@H](NC(=O)c1cc(C#N)cnc1NCc1ccc(-c2cnc(N)c(CC3CCNC3)n2)cc1)c1ccc(F)cc1 (stereo partly drawn) [Example 185, 2-[4-(5-Amino-6-pyrrolidin-3-ylmethyl-pyrazin-2-yl)-benzylamino]-5-cyano-N-[(S)-1-(4-fluoro-phenyl)-ethyl]-nicotinamide] |
